In PubChem BioAssay (NCI):
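Briefly, cells in 96-well plates were exposed to five compound concentrations for 48 h, and endpoints were estimated by linear interpolation. The concentration for 50% growth inhibition is given as GI50. At the TGI there is no net growth.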

Tests used:
Experiment in all cases: inhibition of tumour cell growth, NCI panel, 48 h
786-0 renal = tested on: 786-0 renal
A549 NSCLC = tested on: A549 NSCLC
ACHN renal = tested on: ACHN renal
BT-549 breast = tested on: BT-549 breast
CAKI-1 renal = tested on: CAKI-1 renal
CCRF-CEM leukemia = tested on: CCRF-CEM leukemia
COLO 205 colon = tested on: COLO 205 colon
DU-145 prostate = tested on: DU-145 prostate
EKVX NSCLC = tested on: EKVX NSCLC
HCT-116 colon = tested on: HCT-116 colon
HCT-15 colon = tested on: HCT-15 colon
HOP-62 NSCLC = tested on: HOP-62 NSCLC
HOP-92 NSCLC = tested on: HOP-92 NSCLC
HS 578T breast = tested on: HS 578T breast
HT29 colon = tested on: HT29 colon
IGROV1 ovarian = tested on: IGROV1 ovarian
K-562 leukemia = tested on: K-562 leukemia
KM12 colon = tested on: KM12 colon
M14 melanoma = tested on: M14 melanoma
MALME-3M melanoma = tested on: MALME-3M melanoma
MDA-MB-231 breast = tested on: MDA-MB-231 breast
MDA-MB-435 = tested on: MDA-MB-435
MOLT-4 leukemia = tested on: MOLT-4 leukemia
NCI-H226 lung = tested on: NCI-H226 lung
NCI-H23 lung = tested on: NCI-H23 lung
NCI-H522 lung = tested on: NCI-H522 lung
NCI/ADR-RES ovarian = tested on: NCI/ADR-RES ovarian
OVCAR-3 ovarian = tested on: OVCAR-3 ovarian
OVCAR-4 ovarian = tested on: OVCAR-4 ovarian
OVCAR-5 ovarian = tested on: OVCAR-5 ovarian
OVCAR-8 ovarian = tested on: OVCAR-8 ovarian
PC-3 prostate = tested on: PC-3 prostate
RPMI-8226 leukemia = tested on: RPMI-8226 leukemia
RXF 393 renal = tested on: RXF 393 renal
SF-268 CNS = tested on: SF-268 CNS
SF-295 CNS = tested on: SF-295 CNS
SK-MEL-2 melanoma = tested on: SK-MEL-2 melanoma
SK-MEL-28 melanoma = tested on: SK-MEL-28 melanoma
SK-MEL-5 melanoma = tested on: SK-MEL-5 melanoma
SK-OV-3 ovarian = tested on: SK-OV-3 ovarian
SN12C renal = tested on: SN12C renal
SNB-19 CNS = tested on: SNB-19 CNS
SNB-75 CNS = tested on: SNB-75 CNS
SW-620 colon = tested on: SW-620 colon
T-47D breast = tested on: T-47D breast
TK-10 renal = tested on: TK-10 renal
U251 CNS = tested on: U251 CNS
UACC-257 melanoma = tested on: UACC-257 melanoma
UACC-62 melanoma = tested on: UACC-62 melanoma
UO-31 renal = tested on: UO-31 renal
A498 renal = tested on: A498 renal
HCC-2998 colon = tested on: HCC-2998 colon
HL-60(TB) leukemia = tested on: HL-60(TB) leukemia
LOX IMVI melanoma = tested on: LOX IMVI melanoma
MCF7 breast = tested on: MCF7 breast
NCI-H460 lung = tested on: NCI-H460 lung
SF-539 CNS = tested on: SF-539 CNS
SR leukemia = tested on: SR leukemia

O=S(=O)(O)c1ccccc1N=Nc1ccc(N=Nc2c(O)ccc3ccccc23)c(S(=O)(=O)O)c1
TGI (786-0 renal): > 100 µM
TGI (A549 NSCLC): > 100 µM
TGI (ACHN renal): > 100 µM
TGI (BT-549 breast): > 100 µM
TGI (CAKI-1 renal): > 100 µM
TGI (CCRF-CEM leukemia): > 100 µM
TGI (COLO 205 colon): > 100 µM
TGI (DU-145 prostate): > 100 µM
TGI (EKVX NSCLC): > 100 µM
TGI (HCT-116 colon): > 100 µM
TGI (HCT-15 colon): > 100 µM
TGI (HOP-62 NSCLC): > 100 µM
TGI (HOP-92 NSCLC): > 100 µM
TGI (HS 578T breast): > 100 µM
TGI (HT29 colon): > 100 µM
TGI (IGROV1 ovarian): > 100 µM
TGI (K-562 leukemia): > 100 µM
TGI (KM12 colon): > 100 µM
TGI (M14 melanoma): > 100 µM
TGI (MALME-3M melanoma): > 100 µM
TGI (MDA-MB-231 breast): > 100 µM
TGI (MDA-MB-435): > 100 µM
TGI (MOLT-4 leukemia): > 100 µM
TGI (NCI-H226 lung): > 100 µM
TGI (NCI-H23 lung): > 100 µM
TGI (NCI-H522 lung): > 100 µM
TGI (NCI/ADR-RES ovarian): > 100 µM
TGI (OVCAR-3 ovarian): > 100 µM
TGI (OVCAR-4 ovarian): > 100 µM
TGI (OVCAR-5 ovarian): > 100 µM
TGI (OVCAR-8 ovarian): > 100 µM
TGI (PC-3 prostate): > 100 µM
TGI (RPMI-8226 leukemia): > 100 µM
TGI (RXF 393 renal): > 100 µM
TGI (SF-268 CNS): > 100 µM
TGI (SF-295 CNS): > 100 µM
TGI (SK-MEL-2 melanoma): > 100 µM
TGI (SK-MEL-28 melanoma): > 100 µM
TGI (SK-MEL-5 melanoma): > 100 µM
TGI (SK-OV-3 ovarian): > 100 µM
TGI (SN12C renal): > 100 µM
TGI (SNB-19 CNS): > 100 µM
TGI (SNB-75 CNS): > 100 µM
TGI (SW-620 colon): > 100 µM
TGI (T-47D breast): > 100 µM
TGI (TK-10 renal): > 100 µM
TGI (U251 CNS): > 100 µM
TGI (UACC-257 melanoma): > 100 µM
TGI (UACC-62 melanoma): > 100 µM
TGI (UO-31 renal): > 100 µM

FC(F)(F)c1[nH]ncc1-c1nc2ccc3[nH]ncc3c2c2c1CCCC2
GI50 (786-0 renal): 1.55 µM
TGI (786-0 renal): 4.08 µM
GI50 (A498 renal): 1.17 µM
TGI (A498 renal): 2.6 µM
GI50 (A549 NSCLC): 1.77 µM
TGI (A549 NSCLC): 8.45 µM
GI50 (ACHN renal): 1.39 µM
TGI (ACHN renal): 9.62 µM
GI50 (BT-549 breast): 1.21 µM
TGI (BT-549 breast): 2.66 µM
GI50 (CAKI-1 renal): 1.06 µM
TGI (CAKI-1 renal): 10.4 µM
GI50 (CCRF-CEM leukemia): 2.15 µM
TGI (CCRF-CEM leukemia): 10.7 µM
GI50 (COLO 205 colon): 1.54 µM
TGI (COLO 205 colon): 4.08 µM
GI50 (DU-145 prostate): 1.58 µM
TGI (DU-145 prostate): 10.9 µM
GI50 (EKVX NSCLC): 1.99 µM
TGI (EKVX NSCLC): 7.29 µM
GI50 (HCC-2998 colon): 1.58 µM
TGI (HCC-2998 colon): 3.89 µM
GI50 (HCT-116 colon): 0.523 µM
TGI (HCT-116 colon): 10.6 µM
GI50 (HCT-15 colon): 2.28 µM
TGI (HCT-15 colon): 10.1 µM
GI50 (HL-60(TB) leukemia): 2.09 µM
TGI (HL-60(TB) leukemia): 6.22 µM
GI50 (HOP-62 NSCLC): 1.17 µM
TGI (HOP-62 NSCLC): 6.79 µM
GI50 (HOP-92 NSCLC): 1.21 µM
TGI (HOP-92 NSCLC): 3.5 µM
GI50 (HT29 colon): 2.11 µM
TGI (HT29 colon): 6.76 µM
GI50 (IGROV1 ovarian): 0.942 µM
TGI (IGROV1 ovarian): 5 µM
GI50 (K-562 leukemia): 2.71 µM
TGI (K-562 leukemia): 60.5 µM
GI50 (KM12 colon): 1.19 µM
TGI (KM12 colon): 11.8 µM
GI50 (LOX IMVI melanoma): 1.09 µM
TGI (LOX IMVI melanoma): 2.6 µM
GI50 (M14 melanoma): 1.09 µM
TGI (M14 melanoma): 2.9 µM
GI50 (MALME-3M melanoma): 0.927 µM
TGI (MALME-3M melanoma): 3.82 µM
GI50 (MCF7 breast): 1.67 µM
TGI (MCF7 breast): 10.1 µM
GI50 (MDA-MB-231 breast): 1.84 µM
TGI (MDA-MB-231 breast): 6.19 µM
GI50 (MDA-MB-435): 1.78 µM
TGI (MDA-MB-435): 9.55 µM
GI50 (MOLT-4 leukemia): 1.29 µM
TGI (MOLT-4 leukemia): 5.29 µM
GI50 (NCI-H226 lung): 2.26 µM
TGI (NCI-H226 lung): 12.4 µM
GI50 (NCI-H23 lung): 1.52 µM
TGI (NCI-H23 lung): 4.32 µM
GI50 (NCI-H460 lung): 1.72 µM
TGI (NCI-H460 lung): 9.34 µM
GI50 (NCI-H522 lung): 1.24 µM
TGI (NCI-H522 lung): 4.77 µM
GI50 (NCI/ADR-RES ovarian): 2.49 µM
TGI (NCI/ADR-RES ovarian): 13.9 µM
GI50 (OVCAR-3 ovarian): 2.66 µM
TGI (OVCAR-3 ovarian): 6.86 µM
GI50 (OVCAR-4 ovarian): 2.82 µM
TGI (OVCAR-4 ovarian): 11.4 µM
GI50 (OVCAR-5 ovarian): 2.51 µM
TGI (OVCAR-5 ovarian): 13.1 µM
GI50 (OVCAR-8 ovarian): 2.63 µM
TGI (OVCAR-8 ovarian): 11.9 µM
GI50 (PC-3 prostate): 2.08 µM
TGI (PC-3 prostate): 8.73 µM
GI50 (RPMI-8226 leukemia): 1.42 µM
TGI (RPMI-8226 leukemia): 6.66 µM
GI50 (RXF 393 renal): 1.13 µM
TGI (RXF 393 renal): 2.35 µM
GI50 (SF-268 CNS): 1.73 µM
TGI (SF-268 CNS): 4.72 µM
GI50 (SF-295 CNS): 1.69 µM
TGI (SF-295 CNS): 8.52 µM
GI50 (SF-539 CNS): 1.2 µM
TGI (SF-539 CNS): 2.83 µM
GI50 (SK-MEL-2 melanoma): 1.64 µM
TGI (SK-MEL-2 melanoma): 3.61 µM
GI50 (SK-MEL-28 melanoma): 1.41 µM
TGI (SK-MEL-28 melanoma): 4.86 µM
GI50 (SK-MEL-5 melanoma): 1.55 µM
TGI (SK-MEL-5 melanoma): 2.96 µM
GI50 (SK-OV-3 ovarian): 1.79 µM
TGI (SK-OV-3 ovarian): 5.83 µM
GI50 (SN12C renal): 1.53 µM
TGI (SN12C renal): 5.6 µM
GI50 (SNB-19 CNS): 2.64 µM
TGI (SNB-19 CNS): 9.09 µM
GI50 (SNB-75 CNS): 1.1 µM
TGI (SNB-75 CNS): 2.52 µM
GI50 (SR leukemia): 0.356 µM
TGI (SR leukemia): 2.73 µM
GI50 (SW-620 colon): 1.75 µM
TGI (SW-620 colon): 11 µM
GI50 (T-47D breast): 2.03 µM
TGI (T-47D breast): 9.39 µM
GI50 (TK-10 renal): 1.24 µM
TGI (TK-10 renal): 8.27 µM
GI50 (U251 CNS): 2.56 µM
TGI (U251 CNS): 7.5 µM
GI50 (UACC-257 melanoma): 2.67 µM
TGI (UACC-257 melanoma): 8.69 µM
GI50 (UACC-62 melanoma): 1.02 µM
TGI (UACC-62 melanoma): 2.83 µM
GI50 (UO-31 renal): 1.3 µM
TGI (UO-31 renal): 5 µM
